Source: PMC8107365, “Overlapping Properties of the Short Membrane-Active Peptide BP100 With (i) Polycationic TAT and (ii) α-helical Magainin Family Peptides” (Frontiers in Cellular and Infection Microbiology, 2021)
Values after ≈ are worked out from the molar mass of the structure shown. Values joined by “and” are separate entries in the source; they are usually repeats but may differ in a detail not shown here. Identical values can stand only once. Like-named read-outs stand apart in the source and are kept apart here. Marks after values point to notes of the source that are not given here. Where a SMILES comes first, the peptide text is derived from it.

Tests used:
human erythrocytes = assay: Hemolysis assay; conditions: for HC10, concentration that induced 10% hemolysis: human erythrocytes 0.25% (v/v), Tris buffer pH 7.6/DMSO, 37°C, 20 min, absorbance 540 nm, relative to Triton X-100, up to 100 µM peptide
Procedure: The hemolytic effect of the peptides was tested on human erythrocytes as previously described ([Strandberg et al., 2007]). Citrate phosphate dextrose-stabilized blood bags with erythrocyte suspensions were obtained from the blood bank of the local municipal hospital (Karlsruhe, Germany). Erythrocytes were washed twice with 9-fold excess of Tris buffer (172 mM, pH 7.6 at 0°C) followed by centrifugation at 600 g for 10 min at 4°C, and kept on ice in between. After the second wash, the erythrocytes were transferred from the sediment to a fresh tube with the same precooled buffer to be diluted to about 10% (v/v) hematocrit, giving the stock cell suspension, which was kept on ice. […] The stock cell suspension was further diluted to about 0.5% (v/v). After preincubating for 3 min, 200 μL of the resulting erythrocyte dilution was transferred to each tube of the corresponding peptide serial dilution, to a final concentration of 0.25% (v/v). For each dilution series, zero hemolysis was obtained by adding the erythrocytes to Tris buffer (pH 7.6 at 37°C)/dimethylsulfoxide (9:1 v/v) and measuring the background lysis in the absence of peptide. For 100% hemolysis, the erythrocytes were added to 0.2% of Triton X-100 (Sigma, Germany) in the same buffer, giving a final concentration of 0.1% Triton X-100. Incubation was performed at 37°C for 20 min with gentle shaking. The tubes were centrifuged at 20 000 g for 5 min to pellet the cells, and the absorbance at 540 nm was recorded against water. The percentage lysis was then calculated relative to 0% lysis with buffer and 100% lysis by Triton X-100. The absorbance measurement was repeated three times, and the averaged values are used.

HeLa cells = assay: Toxicity against HeLa cells (calcein AM, fluorescence microscopy); type: cell-based, human; conditions: for Toxicity (HeLa): overview Figure 5; for HeLa cells: lowest tested concentration where dead HeLa cells were observed: peptides N-terminally labeled with Fluka 630 red, 30 min, 37°C, HKR buffer pH 7.4, calcein AM, confocal microscopy
Procedure: HeLa TK A549 cells (from DSMZ, Braunschweig, Germany) were cultivated in minimal essential medium (MEM) with 10% fetal calf serum (FCS) (PAA, Cöble, Germany), and Glutamax (Invitrogen, Karlsruhe, Germany), without antibiotics. Cell density after incubation over night was 30000 cells/chamber in 300 µL medium. For experiments, the medium was removed and cells incubated with peptides at the respective concentration in HEPES Krebs Ringer (HKR) buffer, which consists of 5 mM HEPES, 137 mM NaCl, 2.68 mM KCl, 2.05 mM MgCl2, 1.8 mM CaCl2, and 5.55 mM glucose, pH 7.4. After 30 min (37°C, 5% CO2) cells were washed with HKR buffer, and the behavior of cells at variable peptide concentration examined. A confocal microscope type SP 5 from Leica was used for fluorescence microscopy. The 488 nm line of an argon laser was used for excitation of calcein and the 633 nm line of a helium-neon laser was used for excitation of Fluka 630 red. For kinetic experiments, cells were washed after incubation for 30 minutes and placed into MEM medium at 37°C, and studied after 1, 2, 4, 8 and 24 h. Five minutes before microscopy, calcein AM (Fluka, Buchs, Switzerland) was added to a final concentration of 1 nM to examine cell viability. To avoid artifacts, cells were not fixed.

[1] = tested on: Escherichia coli (DSM 498) (K12)
Procedure: (§1) The antimicrobial activity of BP100 was tested using a standard MIC dilution assay, as previously described ([Strandberg et al., 2007]; [Wadhwani et al., 2012a]). Two Gram-negative strains, Escherichia coli (DSM 498) (K12) and Enterobacter helveticus (DSM 18396), and one Gram-positive strain, Kocuria rhizophila (DSM 348) were used. Bacteria were grown in Luria-Bertani medium at 37°C and 230 rpm overnight, and diluted in 1% trypticase soy broth (TSB). Peptide stock solutions (1024 μg/mL) were prepared in water. Microtiter plates (96 wells of 100 μl) were filled with 50 μl of 1% TSB, and serial 2-fold dilutions of peptides were arranged in columns. The two final rows of each plate remained without peptide, so that the penultimate data point served as the positive control (no peptide) and the final one as the negative control (not inoculated). To each well (except for the final row of each plate), an aliquot of 50 µl of a bacterial suspension containing 10^6 colony-forming units/mL was added to obtain a final volume of 100 µL. Antibacterial activities are expressed as the MIC and correspond to the lowest concentration of peptide, in micromolar units, at which no bacterial growth was detected after overnight incubation at 37°C. The tests were made in triplicate for each peptide, and the value shown is the lowest concentration where at least for two repetitions the growth was inhibited.

[2] = tested on: Kocuria rhizophila (DSM 348)
Procedure: as §1

[3] = tested on: Enterobacter helveticus (DSM 18396)
Procedure: as §1

erythrocytes = conditions: ref Sabatier et al., 1991; Wang et al., 2010; cited from earlier work
Excerpt: Considering that Table 2 (and Figure 2 ) gives the percent of hemolysis as a function of concentration in µM, it can be noted that BP100 c ...

tested bacteria = conditions: E. coli DSM 498, E. helveticus, K. rhizophila
Procedure: as §1

[4] = ref Thorén et al., 2005; cited from earlier work
Excerpt: Another kind of action of membrane-bound peptides is to facilitate fusion between membranes of vesicles or cells. We find here that BP100 has strong fusogenic activity ( Figure 4 ), even higher than the dedicated fusion peptide, FP23 from HIV-1, except in uncharged POPC/CHOL. […] These fusion results fit well with a previous comparison of different AMPs and CPPs ([Wadhwani et al., 2012b]). Obvio ...

[5] = serial 2-fold dilution, 1% TSB, overnight 37°C, triplicate, lowest concentration inhibiting growth in at least two repetitions

Compound | HC10, concentration that induced 10% hemolysis (human erythrocytes) | Hemolysis (human erythrocytes; overview Figure 5) | Toxicity (HeLa) (HeLa cells) | HeLa cells: lowest tested concentration where dead HeLa cells were observed (HeLa cells) | MIC E. coli (DSM 498) [1, 5] | MIC K. rhizophila [2, 5] | MIC E. helveticus [3, 5] | Hemolysis (human erythrocytes) | MIC E. coli (DSM 498) ([1]; DSM 498) | MIC K. rhizophila ([2]; DSM 348) | MIC E. helveticus ([3]; DSM 18396) | Hemolytic activity, in words (human erythrocytes; peptide concentrations up to 100 µM) | Hemolytic activity, in words (literature) (erythrocytes) | MIC over the three tested strains (tested bacteria) | Lipid mixing, in words [4]
CC[C@H](C)[C@H](NC(=O)[C@H](CCCCN)NC(=O)[C@H](CCCCN)NC(=O)[C@H](Cc1ccccc1)NC(=O)[C@H](CC(C)C)NC(=O)[C@H](CCCCN)NC(=O)[C@@H](N)CCCCN)C(=O)N[C@@H](CC(C)C)C(=O)N[C@@H](CCCCN)C(=O)N[C@@H](Cc1ccc(O)cc1)C(=O)N[C@@H](CC(C)C)C(N)=O [BP100] | 45 µM | ++ | +++ | 4 µM | 6.3 µM (≈ 8.95 µg/mL) | 3.2 µM (≈ 4.55 µg/mL) | 6.3 µM (≈ 8.95 µg/mL) |  |  |  |  |  |  |  | 
CC[C@H](C)[C@H](NC(=O)CN)C(=O)NCC(=O)N[C@@H](CCCCN)C(=O)N[C@@H](Cc1ccccc1)C(=O)N[C@@H](CC(C)C)C(=O)N[C@@H](Cc1c[nH]cn1)C(=O)N[C@@H](CO)C(=O)N[C@@H](C)C(=O)N[C@@H](CCCCN)C(=O)N[C@@H](CCCCN)C(=O)N[C@@H](Cc1ccccc1)C(=O)NCC(=O)N[C@@H](CCCCN)C(=O)N[C@@H](C)C(=O)N[C@@H](Cc1ccccc1)C(=O)N[C@H](C(=O)NCC(=O)N[C@@H](CCC(=O)O)C(=O)N[C@H](C(=O)N[C@@H](CCSC)C(=O)N[C@@H](CC(N)=O)C(=O)N[C@@H](CO)C(=O)O)[C@@H](C)CC)C(C)C [MAG2, magainin 2] (H-GIGKFLHSAKKFGKAFVGEIMNS-OH) |  |  | + | 20 µM |  |  |  |  |  |  |  |  |  |  | 
CC(C)C[C@H](NC(=O)[C@H](C)NC(=O)[C@H](CCCCN)NC(=O)[C@H](CC(C)C)NC(=O)[C@H](C)NC(=O)[C@H](CC(C)C)NC(=O)[C@H](CCCCN)NC(=O)[C@H](CC(C)C)NC(=O)[C@H](C)NC(=O)[C@H](CC(C)C)NC(=O)[C@@H](N)CCCCN)C(=O)N[C@@H](CCCCN)C(=O)N[C@@H](C)C(=O)N[C@@H](C)C(=O)N[C@@H](CC(C)C)C(=O)N[C@@H](CCCCN)C(=O)N[C@@H](CC(C)C)C(=O)N[C@@H](C)C(N)=O [MAP] | 2 µM | +++ | +++ | 2 µM | 25 µM (≈ 46.9 µg/mL) | 0.4 µM (≈ 0.751 µg/mL) | 3.2 µM (≈ 6 µg/mL) |  |  |  |  |  |  |  | 
CC[C@H](C)[C@H](NC(=O)[C@H](CCCCN)NC(=O)CNC(=O)[C@H](C)NC(=O)[C@@H](NC(=O)[C@H](CCCCN)NC(=O)[C@H](C)NC(=O)[C@@H](NC(=O)[C@H](CCCCN)NC(=O)CNC(=O)[C@H](C)NC(=O)[C@@H](NC(=O)[C@H](CCCCN)NC(=O)[C@H](C)NC(=O)[C@@H](NC(=O)[C@H](CCCCN)NC(=O)CNC(=O)[C@H](C)NC(=O)[C@@H](NC(=O)[C@@H](N)CCCCN)[C@@H](C)CC)[C@@H](C)CC)[C@@H](C)CC)[C@@H](C)CC)[C@@H](C)CC)C(=O)N[C@@H](C)C(N)=O [MSI-103] (H-KIAGKIAKIAGKIAKIAGKIA-NH2) |  |  | +++ |  |  |  |  | ++ | 12.5 µM (≈ 25.8 µg/mL) | 0.8 µM (≈ 1.65 µg/mL) | 1.6 µM (≈ 3.3 µg/mL) |  |  |  | 
CC[C@H](C)[C@H](NC(=O)[C@H](C)NC(=O)CNC(=O)[C@H](C)NC(=O)[C@H](CCCCN)NC(=O)[C@H](CO)NC(=O)[C@H](C)NC(=O)[C@H](CCSC)NC(=O)CN)C(=O)N[C@@H](C)C(=O)NCC(=O)N[C@@H](CCCCN)C(=O)N[C@H](C(=O)N[C@@H](C)C(=O)N[C@@H](CCCCN)C(=O)N[C@H](C(=O)N[C@@H](C)C(=O)N[C@@H](CC(C)C)C(=O)N[C@@H](CCCCN)C(=O)N[C@@H](C)C(=O)N[C@@H](CC(C)C)C(N)=O)C(C)C)[C@@H](C)CC [PGLa] (H-GMASKAGAIAGKIAKVALKAL-NH2) | 16 µM | ++ | + | 10 µM | 25 µM (≈ 49.2 µg/mL) | 4.1 µM (≈ 8.07 µg/mL) | 16.3 µM (≈ 32.1 µg/mL) |  |  |  |  |  |  |  | 
N=C(N)NCCC[C@H](NC(=O)CN)C(=O)N[C@@H](CCCCN)C(=O)N[C@@H](CCCCN)C(=O)N[C@@H](CCCNC(=N)N)C(=O)N[C@@H](CCCNC(=N)N)C(=O)N[C@@H](CCC(N)=O)C(=O)N[C@@H](CCCNC(=N)N)C(=O)N[C@@H](CCCNC(=N)N)C(=O)N[C@@H](CCCNC(=N)N)C(=O)N1CCC[C@H]1C(=O)N1CCC[C@H]1C(=O)N[C@@H](CCC(N)=O)C(=O)O [TAT] | >>100 μM | - | - | > 20 μM and > 20 ^e μM | >500 ^e μM | 125 µM (≈ 215 µg/mL) | 500 µM (≈ 860 µg/mL) |  |  |  |  | hardly any hemolytic activity | did not show any hemolytic activity | at least 125 µM | 
Ac-GRKKRRQRRRPWQ-NH2 [TATP59W] |  |  |  |  |  |  |  |  |  |  |  |  |  |  | high extent of lipid mixing
